Source: the supplement of paper PMC10307832

Key:
Experiment in all cases: relative viability (nuclei count vs DMSO), 5 days (fraction); higher = more cells survive
RAF265 + Lapatinib = compound: Cn1c(Nc2ccc(C(F)(F)F)cc2)nc2cc(Oc3ccnc(-c4ncc(C(F)(F)F)[nH]4)c3)ccc21 [RAF265] + CS(=O)(=O)CCNCc1ccc(-c2ccc3ncnc(Nc4ccc(OCc5cccc(F)c5)c(Cl)c4)c3c2)o1 [Lapatinib] (partner 2 µM)
How it was run: (§1)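 Each reported value is a median over duplicate plates. It expresses relative viability: treated-well nuclei count divided by vehicle-well nuclei count. Lung cancer cell lines in 1536-well plates were dosed by pin tool a day after seeding, alone with one drug or with a fixed anchor-drug dose plus five library-drug doses (not always all listed) in √10 steps, and nuclei were counted after 5 days.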

Doramapimod + Pemetrexed = compound: Cc1ccc(-n2nc(C(C)(C)C)cc2NC(=O)Nc2ccc(OCCN3CCOCC3)c3ccccc23)cc1 [Doramapimod] + Nc1nc2[nH]cc(CCc3ccc(C(=O)N[C@@H](CCC(=O)O)C(=O)O)cc3)c2c(=O)[nH]1 [Pemetrexed] (partner 0.2 µM)
How it was run: as §1

RAF265 + Bortezomib = compound: Cn1c(Nc2ccc(C(F)(F)F)cc2)nc2cc(Oc3ccnc(-c4ncc(C(F)(F)F)[nH]4)c3)ccc21 [RAF265] + CC(C)C[C@H](NC(=O)[C@H](Cc1ccccc1)NC(=O)c1cnccn1)B(O)O [Bortezomib] (partner 0.002 µM)
How it was run: as §1

RAF265 + Tozasertib = compound: Cn1c(Nc2ccc(C(F)(F)F)cc2)nc2cc(Oc3ccnc(-c4ncc(C(F)(F)F)[nH]4)c3)ccc21 [RAF265] + Cc1cc(Nc2cc(N3CCN(C)CC3)nc(Sc3ccc(NC(=O)C4CC4)cc3)n2)n[nH]1 [Tozasertib] (partner 0.1 µM)
How it was run: as §1

NCI-H838
relative viability (RAF265 + Lapatinib; first compound 0.01 µM): 1.02 | relative viability (RAF265 + Lapatinib; first compound 0.03162 µM): 0.927 | relative viability (RAF265 + Lapatinib; first compound 0.1 µM): 0.972 | relative viability (RAF265 + Lapatinib; first compound 0.3162 µM): 0.971 | relative viability (RAF265 + Lapatinib; first compound 1 µM): 0.885 | relative viability (Doramapimod + Pemetrexed; first compound 0.02 µM): 0.238 | relative viability (Doramapimod + Pemetrexed; first compound 0.06325 µM): 0.252 | relative viability (Doramapimod + Pemetrexed; first compound 0.2 µM): 0.276 | relative viability (Doramapimod + Pemetrexed; first compound 0.6325 µM): 0.263 | relative viability (Doramapimod + Pemetrexed; first compound 2 µM): 0.246 | relative viability (RAF265 + Bortezomib; first compound 0.01 µM): 0.784 | relative viability (RAF265 + Bortezomib; first compound 0.03162 µM): 0.899 | relative viability (RAF265 + Bortezomib; first compound 0.1 µM): 0.788 | relative viability (RAF265 + Bortezomib; first compound 0.3162 µM): 0.841 | relative viability (RAF265 + Bortezomib; first compound 1 µM): 0.572 | relative viability (RAF265 + Tozasertib; first compound 0.01 µM): 0.266 | relative viability (RAF265 + Tozasertib; first compound 0.03162 µM): 0.283 | relative viability (RAF265 + Tozasertib; first compound 0.1 µM): 0.288 | relative viability (RAF265 + Tozasertib; first compound 0.3162 µM): 0.311 | relative viability (RAF265 + Tozasertib; first compound 1 µM): 0.223

NCI-H661
relative viability (RAF265 + Lapatinib; first compound 0.01 µM): 0.539 | relative viability (RAF265 + Lapatinib; first compound 0.03162 µM): 0.466 | relative viability (RAF265 + Lapatinib; first compound 0.1 µM): 0.532 | relative viability (RAF265 + Lapatinib; first compound 0.3162 µM): 0.442 | relative viability (RAF265 + Lapatinib; first compound 1 µM): 0.308 | relative viability (Doramapimod + Pemetrexed; first compound 0.02 µM): 1.05 | relative viability (Doramapimod + Pemetrexed; first compound 0.06325 µM): 0.861 | relative viability (Doramapimod + Pemetrexed; first compound 0.2 µM): 0.923 | relative viability (Doramapimod + Pemetrexed; first compound 0.6325 µM): 0.96 | relative viability (Doramapimod + Pemetrexed; first compound 2 µM): 0.901 | relative viability (RAF265 + Bortezomib; first compound 0.01 µM): 0.87 | relative viability (RAF265 + Bortezomib; first compound 0.03162 µM): 0.649 | relative viability (RAF265 + Bortezomib; first compound 0.1 µM): 0.862 | relative viability (RAF265 + Bortezomib; first compound 0.3162 µM): 0.657 | relative viability (RAF265 + Bortezomib; first compound 1 µM): 0.403 | relative viability (RAF265 + Tozasertib; first compound 0.01 µM): 0.374 | relative viability (RAF265 + Tozasertib; first compound 0.03162 µM): 0.35 | relative viability (RAF265 + Tozasertib; first compound 0.1 µM): 0.314 | relative viability (RAF265 + Tozasertib; first compound 0.3162 µM): 0.351 | relative viability (RAF265 + Tozasertib; first compound 1 µM): 0.35

NCI-H1734
relative viability (RAF265 + Lapatinib; first compound 0.01 µM): 1.08 | relative viability (RAF265 + Lapatinib; first compound 0.03162 µM): 0.854 | relative viability (RAF265 + Lapatinib; first compound 0.1 µM): 0.866 | relative viability (RAF265 + Lapatinib; first compound 0.3162 µM): 0.806 | relative viability (RAF265 + Lapatinib; first compound 1 µM): 0.485 | relative viability (Doramapimod + Pemetrexed; first compound 0.02 µM): 0.416 | relative viability (Doramapimod + Pemetrexed; first compound 0.06325 µM): 0.431 | relative viability (Doramapimod + Pemetrexed; first compound 0.2 µM): 0.419 | relative viability (Doramapimod + Pemetrexed; first compound 0.6325 µM): 0.382 | relative viability (Doramapimod + Pemetrexed; first compound 2 µM): 0.39 | relative viability (RAF265 + Bortezomib; first compound 0.01 µM): 0.937 | relative viability (RAF265 + Bortezomib; first compound 0.03162 µM): 0.724 | relative viability (RAF265 + Bortezomib; first compound 0.1 µM): 0.696 | relative viability (RAF265 + Bortezomib; first compound 0.3162 µM): 0.7 | relative viability (RAF265 + Bortezomib; first compound 1 µM): 0.469 | relative viability (RAF265 + Tozasertib; first compound 0.01 µM): 0.306 | relative viability (RAF265 + Tozasertib; first compound 0.03162 µM): 0.276 | relative viability (RAF265 + Tozasertib; first compound 0.1 µM): 0.255 | relative viability (RAF265 + Tozasertib; first compound 0.3162 µM): 0.232 | relative viability (RAF265 + Tozasertib; first compound 1 µM): 0.215

NCI-H1650
relative viability (RAF265 + Lapatinib; first compound 0.01 µM): 0.844 | relative viability (RAF265 + Lapatinib; first compound 0.03162 µM): 0.749 | relative viability (RAF265 + Lapatinib; first compound 0.1 µM): 0.874 | relative viability (RAF265 + Lapatinib; first compound 0.3162 µM): 0.325 | relative viability (RAF265 + Lapatinib; first compound 1 µM): 0.637 | relative viability (Doramapimod + Pemetrexed; first compound 0.02 µM): 0.345 | relative viability (Doramapimod + Pemetrexed; first compound 0.06325 µM): 0.357 | relative viability (Doramapimod + Pemetrexed; first compound 0.2 µM): 0.447 | relative viability (Doramapimod + Pemetrexed; first compound 0.6325 µM): 0.387 | relative viability (Doramapimod + Pemetrexed; first compound 2 µM): 0.375 | relative viability (RAF265 + Bortezomib; first compound 0.01 µM): 0.224 | relative viability (RAF265 + Bortezomib; first compound 0.03162 µM): 0.222 | relative viability (RAF265 + Bortezomib; first compound 0.1 µM): 0.224 | relative viability (RAF265 + Bortezomib; first compound 0.3162 µM): 0.207 | relative viability (RAF265 + Bortezomib; first compound 1 µM): 0.216 | relative viability (RAF265 + Tozasertib; first compound 0.01 µM): 0.377 | relative viability (RAF265 + Tozasertib; first compound 0.03162 µM): 0.425 | relative viability (RAF265 + Tozasertib; first compound 0.1 µM): 0.473 | relative viability (RAF265 + Tozasertib; first compound 0.3162 µM): 0.446 | relative viability (RAF265 + Tozasertib; first compound 1 µM): 0.304

NCI-H596
relative viability (RAF265 + Lapatinib; first compound 0.01 µM): 1.09 | relative viability (RAF265 + Lapatinib; first compound 0.03162 µM): 1.09 | relative viability (RAF265 + Lapatinib; first compound 0.1 µM): 1.11 | relative viability (RAF265 + Lapatinib; first compound 0.3162 µM): 0.897 | relative viability (RAF265 + Lapatinib; first compound 1 µM): 0.743 | relative viability (Doramapimod + Pemetrexed; first compound 0.02 µM): 0.484 | relative viability (Doramapimod + Pemetrexed; first compound 0.06325 µM): 0.52 | relative viability (Doramapimod + Pemetrexed; first compound 0.2 µM): 0.468 | relative viability (Doramapimod + Pemetrexed; first compound 0.6325 µM): 0.522 | relative viability (Doramapimod + Pemetrexed; first compound 2 µM): 0.479 | relative viability (RAF265 + Bortezomib; first compound 0.01 µM): 1.18 | relative viability (RAF265 + Bortezomib; first compound 0.03162 µM): 0.987 | relative viability (RAF265 + Bortezomib; first compound 0.1 µM): 1.08 | relative viability (RAF265 + Bortezomib; first compound 0.3162 µM): 0.85 | relative viability (RAF265 + Bortezomib; first compound 1 µM): 0.743 | relative viability (RAF265 + Tozasertib; first compound 0.01 µM): 1.04 | relative viability (RAF265 + Tozasertib; first compound 0.03162 µM): 0.959 | relative viability (RAF265 + Tozasertib; first compound 0.1 µM): 1.06 | relative viability (RAF265 + Tozasertib; first compound 0.3162 µM): 0.888 | relative viability (RAF265 + Tozasertib; first compound 1 µM): 0.728

HCC-15
relative viability (RAF265 + Lapatinib; first compound 0.01 µM): 0.832 | relative viability (RAF265 + Lapatinib; first compound 0.03162 µM): 0.893 | relative viability (RAF265 + Lapatinib; first compound 0.1 µM): 0.847 | relative viability (RAF265 + Lapatinib; first compound 0.3162 µM): 0.657 | relative viability (RAF265 + Lapatinib; first compound 1 µM): 0.638 | relative viability (Doramapimod + Pemetrexed; first compound 0.02 µM): 0.225 | relative viability (Doramapimod + Pemetrexed; first compound 0.06325 µM): 0.231 | relative viability (Doramapimod + Pemetrexed; first compound 0.2 µM): 0.245 | relative viability (Doramapimod + Pemetrexed; first compound 0.6325 µM): 0.211 | relative viability (Doramapimod + Pemetrexed; first compound 2 µM): 0.224 | relative viability (RAF265 + Bortezomib; first compound 0.01 µM): 0.95 | relative viability (RAF265 + Bortezomib; first compound 0.03162 µM): 0.96 | relative viability (RAF265 + Bortezomib; first compound 0.1 µM): 0.985 | relative viability (RAF265 + Bortezomib; first compound 0.3162 µM): 0.941 | relative viability (RAF265 + Bortezomib; first compound 1 µM): 0.792 | relative viability (RAF265 + Tozasertib; first compound 0.01 µM): 0.406 | relative viability (RAF265 + Tozasertib; first compound 0.03162 µM): 0.32 | relative viability (RAF265 + Tozasertib; first compound 0.1 µM): 0.538 | relative viability (RAF265 + Tozasertib; first compound 0.3162 µM): 0.401 | relative viability (RAF265 + Tozasertib; first compound 1 µM): 0.278

HOP-62
relative viability (RAF265 + Lapatinib; first compound 0.01 µM): 1.12 | relative viability (RAF265 + Lapatinib; first compound 0.1 µM): 0.934 | relative viability (RAF265 + Lapatinib; first compound 0.3162 µM): 1.05 | relative viability (RAF265 + Lapatinib; first compound 1 µM): 0.792 | relative viability (Doramapimod + Pemetrexed; first compound 0.02 µM): 0.242 | relative viability (Doramapimod + Pemetrexed; first compound 0.06325 µM): 0.306 | relative viability (Doramapimod + Pemetrexed; first compound 0.2 µM): 0.295 | relative viability (Doramapimod + Pemetrexed; first compound 0.6325 µM): 0.326 | relative viability (Doramapimod + Pemetrexed; first compound 2 µM): 0.309 | relative viability (RAF265 + Bortezomib; first compound 0.01 µM): 1.15 | relative viability (RAF265 + Bortezomib; first compound 0.1 µM): 1.05 | relative viability (RAF265 + Bortezomib; first compound 0.3162 µM): 0.674 | relative viability (RAF265 + Bortezomib; first compound 1 µM): 0.788 | relative viability (RAF265 + Tozasertib; first compound 0.01 µM): 0.338 | relative viability (RAF265 + Tozasertib; first compound 0.03162 µM): 0.326 | relative viability (RAF265 + Tozasertib; first compound 0.1 µM): 0.406 | relative viability (RAF265 + Tozasertib; first compound 0.3162 µM): 0.515 | relative viability (RAF265 + Tozasertib; first compound 1 µM): 0.225

NCI-H3122
relative viability (RAF265 + Lapatinib; first compound 0.01 µM): 1.04 | relative viability (RAF265 + Lapatinib; first compound 0.03162 µM): 1.11 | relative viability (RAF265 + Lapatinib; first compound 0.1 µM): 1.07 | relative viability (RAF265 + Lapatinib; first compound 0.3162 µM): 0.953 | relative viability (RAF265 + Lapatinib; first compound 1 µM): 0.98 | relative viability (Doramapimod + Pemetrexed; first compound 0.02 µM): 0.197 | relative viability (Doramapimod + Pemetrexed; first compound 0.06325 µM): 0.207 | relative viability (Doramapimod + Pemetrexed; first compound 0.2 µM): 0.187 | relative viability (Doramapimod + Pemetrexed; first compound 0.6325 µM): 0.207 | relative viability (Doramapimod + Pemetrexed; first compound 2 µM): 0.196 | relative viability (RAF265 + Bortezomib; first compound 0.01 µM): 0.955 | relative viability (RAF265 + Bortezomib; first compound 0.03162 µM): 1.02 | relative viability (RAF265 + Bortezomib; first compound 0.1 µM): 1.07 | relative viability (RAF265 + Bortezomib; first compound 0.3162 µM): 1.04 | relative viability (RAF265 + Bortezomib; first compound 1 µM): 0.922 | relative viability (RAF265 + Tozasertib; first compound 0.01 µM): 0.362 | relative viability (RAF265 + Tozasertib; first compound 0.03162 µM): 0.492 | relative viability (RAF265 + Tozasertib; first compound 0.1 µM): 0.424 | relative viability (RAF265 + Tozasertib; first compound 1 µM): 0.283
